Results from patent US20040086901A1, “Database for analyzing gene function and method of analyzing gene function by dspa” (priority 2000, published 2004).

Columns and labels:
Assay type in all cases: cell-based, mouse
[1] = tested on: NIH3T3 cells overexpressing caspase-3; assay: MTT cell viability, caspase-3 overexpressing cells vs parental line; details: caspase-3 high-expressing cells / parental cell line, 3 to 4 days
Protocol: (§1) With regard to the function-known genes, the genes shown in the left column of Table 2 were used. With regard to the drugs, those shown in Table 1 were dissolved in DMSO to an extent of 100-fold of the maximum concentration for the search of the drugs and used. With regard to the cells, incubated NIH3T3 or ras-NIH3T3 cells were used.
(§2) Full-length cDNA of each function-known genes was incorporated into an expression vector (pRc-CMV, etc.) and transfected into NIH3T3 cells by a common method. Transformed cells were isolated using the resistance to G-418 as an index and the expression of the transfected gene in each cell was investigated by Western blotting method to select a highly expressing line.
(§3) Cell viabilities were measured according to the following procedures.
(§4) 1) From the 2nd to the 11th rows of a 96-well plate were filled with DMEM (50 μl). The 12th row was filled with 100 μl of DMEM.
(§5) 2) The 1st row was filled with 98 μl of DMEM.
(§6) 3) Drugs (2 μl each) were added into the 1st row.
(§7) 4) Continuous double-dilution was conducted from the 1st to the 9th rows. Fifty μl were taken out from the 9th row and discarded. The plate was preserved in a CO2 incubator.
(§8) 5) Cells (each high-expressing cells and the parental cell line) were detached from the medium using a trypsin solution, suspended in 10% CS-DMEM and transferred to a test tube and cell numbers (cell/ml) were counted.
(§9) 6) The cells were diluted to a concentration of 1×10^5 cells/ml, and 50 μl of the cell suspension were added to the 1st to the 11th rows of the plate followed by gently stirring.
(§10) 7) The plate was transferred to the CO2 incubator and incubated for 3 to 4 days.
(§11) 8) MTT (5 mg/ml in PBS) (10 μl) was added to the 1st to the 12th rows of the plate and incubated in the CO2 incubator at 37° C. for 4 hours.
(§12) 9) A reaction stop solution (0.04N HCl in isopropanol) (150 μl) was added followed by mixing well and being allowed to stand at room temperature for about 2 hours.
(§13) 10) Coloration of formazan which was a metabolite of the MTT dye was measured using a microplate reader. The measurement wavelength was 574 nm and the reference wavelength was 655 nm. The 10th and the 11th rows of the plate were 100% controls and the 12th row was a 0% control.
(§14) As an index for the sensitivity of highly gene-expressing cells and the parental cell line to various drugs, each of the IC40 values thereof was specified and ratios of the IC40 values were calculated. […] After that, logarithmic values of ratios of IC40 values were calculated from each gene.

[2] = tested on: NIH3T3 cells overexpressing TK; assay: MTT cell viability, TK overexpressing cells vs parental line; details: TK high-expressing cells / parental cell line, 3 to 4 days
Protocol: as §1, §2, §3, §4, §5, §6, §7, §8, §9, §10, §11, §12, §13
(§15) As an index for the sensitivity of highly gene-expressing cells and the parental cell line to various drugs, each of the IC40 values thereof was specified and ratios of the IC40 values were calculated. FIG. 2 and FIG. 3 are the examples where ratios of IC40 values were calculated from a curve showing the dependency on the concentration of the chemical versus the viability. After that, logarithmic values of ratios of IC40 values were calculated from each gene.

[3] = tested on: NIH3T3 cells overexpressing cystatin alpha; assay: MTT cell viability, cystatin alpha overexpressing cells vs parental line; details: cystatin alpha high-expressing cells / parental cell line, 3 to 4 days
Protocol: as §1, §2, §3, §4, §5, §6, §7, §8, §9, §10, §11, §12, §13, §15

[4] = tested on: NIH3T3 cells overexpressing coup; assay: MTT cell viability, coup overexpressing cells vs parental line; details: coup high-expressing cells / parental cell line, 3 to 4 days
Protocol: as §1, §2, §3, §4, §5, §6, §7, §8, §9, §10, §11, §12, §13, §15

[5] = tested on: NIH3T3 cells overexpressing HNF3b; assay: MTT cell viability, HNF3b overexpressing cells vs parental line; details: HNF3b high-expressing cells / parental cell line, 3 to 4 days
Protocol: as §1, §2, §3, §4, §5, §6, §7, §8, §9, §10, §11, §12, §13, §14

[6] = tested on: NIH3T3 cells overexpressing caspase-2; assay: MTT cell viability, caspase-2 overexpressing cells vs parental line; details: caspase-2 high-expressing cells / parental cell line, 3 to 4 days
Protocol: as §1, §2, §3, §4, §5, §6, §7, §8, §9, §10, §11, §12, §13, §15

[7] = tested on: NIH3T3 cells overexpressing v-src; assay: MTT cell viability, v-src overexpressing cells vs parental line; details: v-src high-expressing cells / parental cell line, 3 to 4 days
Protocol: as §1, §2, §3, §4, §5, §6, §7, §8, §9, §10, §11, §12, §13, §15

[8] = tested on: NIH3T3 cells overexpressing CaMKIIa; assay: MTT cell viability, CaMKIIa overexpressing cells vs parental line; details: CaMKIIa high-expressing cells / parental cell line, 3 to 4 days
Protocol: as §1, §2, §3, §4, §5, §6, §7, §8, §9, §10, §11, §12, §13, §14

[9] = tested on: NIH3T3 cells overexpressing p38-DN; assay: MTT cell viability, p38-DN overexpressing cells vs parental line; details: p38-DN high-expressing cells / parental cell line, 3 to 4 days
Protocol: as §1, §2, §3, §4, §5, §6, §7, §8, §9, §10, §11, §12, §13, §14

[10] = tested on: NIH3T3 cells overexpressing PKCalpha-KN; assay: MTT cell viability, PKCalpha-KN overexpressing cells vs parental line; details: 3 to 4 days
Protocol: as §1, §2, §3, §4, §5, §6, §7, §8, §9, §10, §11, §12, §13, §14

[11] = tested on: NIH3T3 cells overexpressing cystatin E; assay: MTT cell viability, cystatin E overexpressing cells vs parental line; details: cystatin E high-expressing cells / parental cell line, 3 to 4 days
Protocol: as §1, §2, §3, §4, §5, §6, §7, §8, §9, §10, §11, §12, §13, §15

[12] = tested on: NIH3T3 cells overexpressing CP-antisense; assay: MTT cell viability, CP-antisense cells vs parental line; details: 3 to 4 days
Protocol: as §1, §2, §3, §4, §5, §6, §7, §8, §9, §10, §11, §12, §13, §15

[13] = tested on: NIH3T3 cells overexpressing Ha-ras; assay: MTT cell viability, drug sensitivity of Ha-ras overexpressing cells vs parental line; details: Ha-ras high-expressing cells / parental cell line, 3 to 4 days
Protocol: as §1, §2, §3, §4, §5, §6, §7, §8, §9, §10, §11, §12, §13, §14

[14] = tested on: NIH3T3 cells overexpressing HNF1; assay: MTT cell viability, HNF1 overexpressing cells vs parental line; details: HNF1 high-expressing cells / parental cell line, 3 to 4 days
Protocol: as §1, §2, §3, §4, §5, §6, §7, §8, §9, §10, §11, §12, §13, §14

[15] = tested on: NIH3T3 cells overexpressing p33/ING1; assay: MTT cell viability, p33/ING1 overexpressing cells vs parental line; details: p33/ING1 high-expressing cells / parental cell line, 3 to 4 days
Protocol: as §1, §2, §3, §4, §5, §6, §7, §8, §9, §10, §11, §12, §13, §15

[16] = tested on: NIH3T3 cells overexpressing DAN; assay: MTT cell viability, DAN overexpressing cells vs parental line; details: DAN high-expressing cells / parental cell line, 3 to 4 days
Protocol: as §1, §2, §3, §4, §5, §6, §7, §8, §9, §10, §11, §12, §13, §15

[17] = tested on: NIH3T3 cells overexpressing caspase-1; assay: MTT cell viability, caspase-1 overexpressing cells vs parental line; details: caspase-1 high-expressing cells / parental cell line, 3 to 4 days
Protocol: as §1, §2, §3, §4, §5, §6, §7, §8, §9, §10, §11, §12, §13, §14

[18] = tested on: NIH3T3 cells overexpressing RhoA; assay: MTT cell viability, RhoA overexpressing cells vs parental line; details: RhoA high-expressing cells / parental cell line, 3 to 4 days
Protocol: as §1, §2, §3, §4, §5, §6, §7, §8, §9, §10, §11, §12, §13, §15

[19] = tested on: NIH3T3 cells overexpressing erbB2; assay: MTT cell viability, erbB2 overexpressing cells vs parental line; details: erbB2 high-expressing cells / parental cell line, 3 to 4 days
Protocol: as §1, §2, §3, §4, §5, §6, §7, §8, §9, §10, §11, §12, §13, §15

[20] = tested on: NIH3T3 cells overexpressing Regucalcin; assay: MTT cell viability, Regucalcin overexpressing cells vs parental line; details: Regucalcin high-expressing cells / parental cell line, 3 to 4 days
Protocol: as §1, §2, §3, §4, §5, §6, §7, §8, §9, §10, §11, §12, §13, §15

[21] = PKCalpha-KN (second of two lines) high-expressing cells / parental cell line

Row | SMILES | logarithmic value of ratio of IC40 values [1] | logarithmic value of ratio of IC40 values [2] | logarithmic value of ratio of IC40 values [3] | logarithmic value of ratio of IC40 values [4] | logarithmic value of ratio of IC40 values [5] | logarithmic value of ratio of IC40 values [6] | logarithmic value of ratio of IC40 values [7] | logarithmic value of ratio of IC40 values [8] | logarithmic value of ratio of IC40 values [9] | logarithmic value of ratio of IC40 values [10, 21] | logarithmic value of ratio of IC40 values [11] | logarithmic value of ratio of IC40 values [12] | logarithmic value of ratio of IC40 values [13] | logarithmic value of ratio of IC40 values [14] | logarithmic value of ratio of IC40 values [15] | logarithmic value of ratio of IC40 values [16] | logarithmic value of ratio of IC40 values [17] | logarithmic value of ratio of IC40 values [18] | logarithmic value of ratio of IC40 values [19] | logarithmic value of ratio of IC40 values [20] | further results
1 | O=c1c(-c2ccc(O)cc2)coc2cc(O)cc(O)c12 [Genistein, genistein] | 0.04 | 0.08 | 0.28 | 0.44 | −0.21 | 0.30 | −0.60 | −0.15 | 0.00 | 0.24 | 0.21 | 0.00 | −0.35 | 0.234 | 0.78 | 0.20 | −0.12 | 0.31 | −0.60 | 0.00 | logarithmic value of ratio of IC40 values ([10]; PKCalpha-KN (first of two lines) high-expressing cells / parental cell line): 0.16
2 | O=CN/C=C/c1cc(O)ccc1O [Erbstatin, erbstatin] | −0.10 | 0.05 | 0.08 | 0.33 | −0.03 | −0.07 | −0.05 | 0.14 | 0.06 | 0.00 | −0.06 | 0.06 | 0.08 | 0.391 | 0.11 | 0.20 | −0.22 | 0.14 | −0.05 | 0.00 | 
